Test results reported in patent US20250057793A1, “BENZOIC ACID SALTS FOR TREATMENT OF NERVOUS SYSTEM INJURIES AND DISORDERS” (The United States Government as represented by the …, priority 2021, published 2025).

Assays:
primary mouse microglia = assay: Proinflammatory cytokine production in primary mouse microglia (ELISA); assay type: cell-based; conditions: cinnamein 6 h, serum-free, 24 h
Experimental: FIGS. 19A-19B. Cinnamein inhibits LPS- and polyIC-induced production of TNFα in primary mouse microglia. Microglia isolated from 2d old mouse pups were incubated with different concentrations of cinnamein for 6 h followed by stimulation with either 1 μg/ml LPS (FIG. 19A) or 50 μg/ml polyIC (FIG. 19B) under serum-free condition. After 24 h of stimulation, the level of TNFα was measured in supernatants by ELISA. Results are mean+SD of three independent experiments. *p<0.05; **p<0.01; ***p<0.001; NS, not significant.
FIGS. 20A-20B. Cinnamein suppresses the production of IL-1j3 from LPS- and poly IC-stimulated primary mouse microglia. Cells preincubated with different concentrations of cinnamein for 6 h were stimulated with either 1 μg/ml LPS (FIG. 20A) or 50 μg/ml polyIC (FIG. 20B) under serum-free condition. After 24 h of stimulation, the level of […] was measured in supernatants by ELISA. Results are mean+SD of three independent experiments. ***p<0.001.
FIGS. 21A-21B. Cinnamein decreases LPS- and polyIC-induced production of IL-6 in primary mouse microglia. Microglia were incubated with different concentrations of cinnamein for 6 h followed by stimulation with either 1 μg/ml LPS (FIG. 21A) or 50 μg/ml polyIC (FIG. 21B) under serum-free condition. After 24 h of stimulation, the level of IL-6 was measured in supernatants by ELISA. Results are mean+SD of three independent experiments. ***p<0.001.

[1] = test system: mouse RAW 264.7 macrophages; assay: NO production from stimulated RAW 264.7 macrophages (nitrite, Griess reagent); assay type: cell-based; conditions: cinnamein pretreatment 6 h, serum-free, 24 h; for LPS-induced production of NO (nitrite): 1 μg/ml LPS; for IFNγ-induced production of NO (nitrite): 25 U/ml IFNγ
Experimental: FIGS. 18A-18C. Cinnamein inhibits the induction of NO production from LPS- and IFNγ-stimulated mouse RAW 264.7 macrophages. FIG. 18A) Cells preincubated with different concentrations of cinnamein for 6 h were stimulated with 1 μg/ml LPS under serum-free condition. After 24 h of stimulation, the level of nitrite was measured in supernatants by Griess reagent. FIG. 18B) Cells preincubated with 400 μM cinnamein for different hours were stimulated with 1 μg/ml LPS under serum-free condition. After 24 h of stimulation, the level of nitrite was measured in supernatants. FIG. 18C) Cells preincubated with different concentrations of cinnamein for 6 h were stimulated with 25 U/ml IFNγ under serum-free condition. After 24 h of stimulation, the level of nitrite was measured in supernatants. Results are mean+SD of three independent experiments. *p<0.05; **p<0.01; ***p<0.001; NS, not significant.

primary mouse astrocytes = assay: Proinflammatory cytokine production in primary mouse astrocytes (ELISA); assay type: cell-based; conditions: cinnamein 6 h, 50 μg/ml poly IC, serum-free, 24 h
Experimental: FIGS. 22A-22B. Cinnamein inhibits the production of proinflammatory cytokines from polyIC-stimulated primary mouse astrocytes. Astrocytes preincubated with different concentrations of cinnamein for 6 h were stimulated with 50 μg/ml poly IC under serum-free condition. After 24 h of stimulation, levels of TNFα (FIG. 22A) and IL-6 (FIG. 22B) were measured in supernatants by ELISA. Results are mean+SD of three independent experiments. *p<0.05; **p<0.01; ***p<0.001.

CCI-injured mice [2] = assay: Rotarod test in CCI-injured mice; assay type: in vivo, mouse; conditions: 50 mg/kg/day oral
Experimental: The forehindlimb motor coordination and balance in animals was observed using the rotarod test as described in earlier studies. Briefly, each mouse was placed on the confined section of the rod and trial was initiated with a smooth increase in speed from 4 rpm to 40 rpm for 5 mins. […] The latency to fall was measured in seconds and used for the analysis. Following the CCI injury, each mouse performed the task three trials during the testing sessions and the average score on these three trials was used as the individual rotarod score. Each trial on the rod was terminated when the mice fell off the rod or held on to the rod by hanging and completed improper revolutions.

CCI-induced TBI mice [3] = assay: Glial activation and iNOS in brain of CCI-induced TBI mice (immunofluorescence, Western blot); conditions: cortex and hippocampus
[4] = test system: oligodendroglial progenitor cells (OPCs); assay: Maturation of oligodendroglial progenitor cells (OPCs) into oligodendrocytes; assay type: cell-based, mouse; conditions: 100 μM, 18 h, serum-free, absence of FGF and PDGF
Experimental: FIGS. 15A-15L: Effect of sodium benzoate (NaB) on the maturation of oligodendroglial progenitor cells (OPCs) into oligodendrocytes. OPCs were isolated from P1˜P2 neonatal mouse pups, cultured in OPC media for 4 days in vitro (DIV) followed by treatment with 100 μM NaB and sodium formate (NaFO) in the absence of FGF and PDGF.
FIG. 15A) After 18 h of 100 μM NaB treatment in serum-free condition, cells were fixed and then dual immuno-stained with MBP (red) and OPC marker NG2 (green). Nuclei were stained with DAPI (blue). FIG. 15B) Similarly, OPCs were stained with PLP (red) and A2B5 (green) under similar treatment condition. Quantification of MBP+(FIG. 15C), NG2+(FIG. 15D), PLP+(FIG. 15E), and A2B5+(FIG. 15F) cells as a percentage of total cells (DAPI+). Average 5 fields per slide, total 3 slides. Results are mean+SEM. ***p<0.001. FIG. 15G) For protein expression, cells were treated with different doses of NaB for 18 h under serum free condition and then immunoblotted with PLP and MOG. FIG. 15H) Densitometric analyses of the bands relative to beta actin were done for PLP and MOG. ^ap<0.001 vs. control PLP; ^bp<0.005 vs. control MOG. FIG. 151) Cells were treated with NaB (100 μM) and NaFO (100 μM) for 4 h under serum-free condition followed by monitoring the mRNA expression of myelin-specific genes by real-time PCR (ap<0.01 vs. control PLP; ^bp<0.01 vs. control MOG; cp<0.01 vs. control MBP; dp<0.01 vs. control CNPase). OPCs were cultured on the top of randomly-oriented polycaprolactone nanofibers (Nanofiber Solutions; Cat #Z694576) for 7 days. After that, these cells were treated with 100 μM NaB (FIG. 15J) and NaFO (K) for additional 2 days followed by immunofluorescence analysis for MBP (red) (FIG. 15J, control; FIG. 15K, NaB; FIG. 15L, NaFO). […] Representative 3D constructed images of OPCs adhered to nanofibers were also shown at the right side.

CCI-induced TBI mice [5] = assay: Lesion volume in CCI-induced mice (Cavalieri stereology); assay type: in vivo, mouse
Experimental: FIG. 5C is a plot showing lesion size in the experimental conditions. Lesion size was quantitatively measured in control mice, untreated CCI injured mice, NaB treated CCI-mice and NaFO-treated CCI-mice at 21 days post-injury. Statistical analyses were performed with Student's t-test in the injured side of the brain [^ap<0.001 (5.623×10^−7) vs control; ^bp<0.001 (=0.001) vs CCI injury].
FIGS. 10A-10C. Decrease in lesion volume in TBI mice by GTB treatment. […] FIG. 10A. […] FIG. 10C. Lesion volume was quantified in all groups of mice. Statistical analyses were performed with two way ANOVA and expressed as mean±SD to compare the lesion volume between unlesioned and lesioned side of the brain.
The estimation of lesion volume was performed based on the Cavalieri method of unbiased stereology using the StereoInvestigator software (MicroBright Biosciences, USA). Both the ipsilateral and contralateral hemisphere of brain volumes were determined using the Cavalieri estimator with a 1 mm grid spacing 1 mm. Every fourth section was analyzed beginning from a random start point. Lesion volume was estimated by subtracting the volume of the ipsilateral hemisphere from that of the contralateral hemi-sphere. Then the volume of lesion cavity estimated in brain section of untreated mice was compared with lesion volume of brain sections of drug treated mice.

TBI mice = assay: Barnes maze test in TBI mice; assay type: in vivo, mouse; conditions: NOR, Barnes maze and T maze, 21 days, 50 mg/kg/day oral
Experimental: The Barnes maze test was performed as described in our earlier studies. Briefly, the mice were initially trained for 2 consecutive days followed by examination on day 3. After each training session, maze and escape tunnel were thoroughly cleaned with a mild detergent to avoid instinctive odor avoidance due to mouse's odor from the familiar object. On day 3, a video camera (Basler Gen I Cam—Basler acA 1300-60) connected to a Noldus computer system was placed above the maze and was illuminated with high voltage light that generated enough light and heat to motivate animals to enter into the escape tunnel. The performance was monitored by the video tracking system (Noldus System). Cognitive behavior parameters were examined by measuring latency (duration before all four paws were on the floor of the escape box) and errors (incorrect response before all four paws were on the floor of the escape box).

CCI-injured mice [6] = assay: Grid runway in CCI-injured mice; assay type: in vivo, mouse; conditions: 7 day post-injury, 50 mg/kg/day oral
Excerpt: The grid runway (65 cm length×8 cm breadth×1 cm intervals) made of parallel grid bars with interbar intervals of 1 cm apart and grid were kept above the surface on a table during the testing session. The soft padding was positioned under the grid run-way in the event for protection to avoid serious injury, if the animal falls from the grid. Each mouse was allowed to walk freely on grid and the time taken and number of steps to cross the runway was noted. Each successful foot placement on grid was recorded as a step. However, an error was considered whenever the paw slips through the grid or the paw misses a bar and extends downwards through the plane of bars. The locomotor behavior of animal on grid was evaluated by an observer blinded to the treatment on 7th and 21st day after CCI injury.

[7] = test system: mice with traumatic brain injury (TBI); assay: Remyelination in corpus callosum of mice with TBI (PLP/A2B5 double-labeling); assay type: in vivo, mouse; conditions: 50 mg/kg body weight/day oral gavage
Experimental: FIG. 4 are images of the corpus collosum in mice showing the levels of proteolipid protein (PLP) and A2B5, a marker of oligodendroglial progenitor cells (OPC), in the experimental conditions after 21 days. Oral administration of sodium benzoate (NaB), but not sodium formate (NaFO), stimulates remyelination in mice with traumatic brain injury (TBI). Mice (n=6 per group) were induced moderate TBI by controlled cortical impact (CCI). Starting from 2 hours after TBI, mice were treated with NaB and NaFO (50 mg/kg body weight/day; mixed with water) orally via gavage. After 21 d of treatment, brain sections were double-labeled for PLP and A2B5.
Proteolipid protein (PLP) is a marker of oligodendrocytes and A2B5 is a marker of oligodendroglial progenitor cells (OPC). After 21 days of treatment, brain sections were double-labeled with antibodies against PLP and A2B5.

[8] = test system: OPCs cultured on polycaprolactone nanofibers; assay: Myelination of synthetic polycaprolactone nanofibers by OPCs; assay type: cell-based, mouse; conditions: 100 μM, 2 days after 7 days culture on nanofibers
Experimental: FIG. 15A) After 18 h of 100 μM NaB treatment in serum-free condition, cells were fixed and then dual immuno-stained with MBP (red) and OPC marker NG2 (green). Nuclei were stained with DAPI (blue). FIG. 15B) Similarly, OPCs were stained with PLP (red) and A2B5 (green) under similar treatment condition. Quantification of MBP+(FIG. 15C), NG2+(FIG. 15D), PLP+(FIG. 15E), and A2B5+(FIG. 15F) cells as a percentage of total cells (DAPI+). Average 5 fields per slide, total 3 slides. Results are mean+SEM. ***p<0.001. FIG. 15G) For protein expression, cells were treated with different doses of NaB for 18 h under serum free condition and then immunoblotted with PLP and MOG. FIG. 15H) Densitometric analyses of the bands relative to beta actin were done for PLP and MOG. ^ap<0.001 vs. control PLP; ^bp<0.005 vs. control MOG. FIG. 151) Cells were treated with NaB (100 μM) and NaFO (100 μM) for 4 h under serum-free condition followed by monitoring the mRNA expression of myelin-specific genes by real-time PCR (ap<0.01 vs. control PLP; ^bp<0.01 vs. control MOG; cp<0.01 vs. control MBP; dp<0.01 vs. control CNPase). OPCs were cultured on the top of randomly-oriented polycaprolactone nanofibers (Nanofiber Solutions; Cat #Z694576) for 7 days. […]

[9] = 1 μg/ml LPS, listed as Cinnamein
[10] = 50 μg/ml polyIC, listed as Cinnamein
[11] = day 7 post-injury, 50 mg/kg/day oral from 24 h after CCI

## O=C(/C=C/c1ccccc1)OCc1ccccc1 [cinnamein, Cinnamein]
Primary mouse microglia; 1 μg/ml LPS
  LPS-induced production of IL-6: strongly inhibited
  LPS-induced production of TNFα: strongly inhibited
  production of IL-1β: strongly inhibited
Primary mouse microglia; [9]
  LPS-induced production of IL-6: decreases
  LPS-induced production of TNFα: inhibits
  production of IL-1β: suppresses
Primary mouse microglia; 50 μg/ml polyIC
  polyIC-induced production of IL-6: strongly inhibited
  polyIC-induced production of TNFα: strongly inhibited
  production of IL-1β: strongly inhibited
Primary mouse microglia; [10]
  polyIC-induced production of IL-6: decreases
  polyIC-induced production of TNFα: inhibits
  production of IL-1β: suppresses
[1]
  LPS-induced production of NO (nitrite): significantly inhibited
  IFNγ-induced production of NO (nitrite): significantly inhibited
[1]; listed as Cinnamein
  LPS-induced production of NO (nitrite): inhibits
  IFNγ-induced production of NO (nitrite): inhibits
Primary mouse astrocytes
  polyIC-induced production of IL-6: inhibited
  polyIC-induced production of TNFα: inhibited
Primary mouse astrocytes; listed as Cinnamein
  polyIC-induced production of IL-6: inhibits
  polyIC-induced production of TNFα: inhibits

## O=C[O-].[Na+] [NaFO, sodium formate]
CCI-injured mice [2]; 7 day post-injury
  latency to fall on rotarod: not
CCI-injured mice [2]; 21 day post-injury
  latency to fall on rotarod: not
CCI-induced TBI mice [3]; day 7, 50 mg/kg/day oral
  iNOS / iNOS-positive cells: not
CCI-induced TBI mice [3]; [11]
  GFAP-positive astrocytes: remained unable to inhibit glial activation
  Iba1-positive microglia: remained unable to inhibit glial activation
[4]
  differentiation/maturation of OPCs into oligodendrocytes (MBP+, PLP+, NG2+, A2B5+ cells): did not promote
CCI-induced TBI mice [5]; cresyl violet sections, 21 days post-injury, 50 mg/kg/day oral
  total lesion volume / size of lesion cavity: not
CCI-induced TBI mice [5]; oral treatment started 24 h after CCI
  structural-tissue integrity of damaged hippocampus: remained unable to exhibit such protection
TBI mice
  hippocampus-dependent behaviors / cognitive performance: remained unable to improve
CCI-injured mice [6]
  gait movement on grid runway (steps, time taken, foot misplacement): not
[7]; 21 days of treatment
  level of PLP in corpus callosum: remained unable to restore
  number of OPCs (A2B5 positive) in corpus callosum: remained unable
[7]; 21 d of treatment
  remyelination: not
[8]
  myelination of synthetic fibers (MBP immunofluorescence): not
